Molecules are shown by their SMILES.

In one experiment the target is Jak2 (Jak2-WT) (Mus musculus, UniProt Q62120). Nature of the experiment: autophosphorylation. Format: cell-based.
In the next experiment the target is Jak2-V617F (Mus musculus, UniProt Q62120, V617F). Nature of the experiment: autophosphorylation. Type of experiment: cell-based.
Chain of Jak2-V617F (Q62120 whole entry V617F): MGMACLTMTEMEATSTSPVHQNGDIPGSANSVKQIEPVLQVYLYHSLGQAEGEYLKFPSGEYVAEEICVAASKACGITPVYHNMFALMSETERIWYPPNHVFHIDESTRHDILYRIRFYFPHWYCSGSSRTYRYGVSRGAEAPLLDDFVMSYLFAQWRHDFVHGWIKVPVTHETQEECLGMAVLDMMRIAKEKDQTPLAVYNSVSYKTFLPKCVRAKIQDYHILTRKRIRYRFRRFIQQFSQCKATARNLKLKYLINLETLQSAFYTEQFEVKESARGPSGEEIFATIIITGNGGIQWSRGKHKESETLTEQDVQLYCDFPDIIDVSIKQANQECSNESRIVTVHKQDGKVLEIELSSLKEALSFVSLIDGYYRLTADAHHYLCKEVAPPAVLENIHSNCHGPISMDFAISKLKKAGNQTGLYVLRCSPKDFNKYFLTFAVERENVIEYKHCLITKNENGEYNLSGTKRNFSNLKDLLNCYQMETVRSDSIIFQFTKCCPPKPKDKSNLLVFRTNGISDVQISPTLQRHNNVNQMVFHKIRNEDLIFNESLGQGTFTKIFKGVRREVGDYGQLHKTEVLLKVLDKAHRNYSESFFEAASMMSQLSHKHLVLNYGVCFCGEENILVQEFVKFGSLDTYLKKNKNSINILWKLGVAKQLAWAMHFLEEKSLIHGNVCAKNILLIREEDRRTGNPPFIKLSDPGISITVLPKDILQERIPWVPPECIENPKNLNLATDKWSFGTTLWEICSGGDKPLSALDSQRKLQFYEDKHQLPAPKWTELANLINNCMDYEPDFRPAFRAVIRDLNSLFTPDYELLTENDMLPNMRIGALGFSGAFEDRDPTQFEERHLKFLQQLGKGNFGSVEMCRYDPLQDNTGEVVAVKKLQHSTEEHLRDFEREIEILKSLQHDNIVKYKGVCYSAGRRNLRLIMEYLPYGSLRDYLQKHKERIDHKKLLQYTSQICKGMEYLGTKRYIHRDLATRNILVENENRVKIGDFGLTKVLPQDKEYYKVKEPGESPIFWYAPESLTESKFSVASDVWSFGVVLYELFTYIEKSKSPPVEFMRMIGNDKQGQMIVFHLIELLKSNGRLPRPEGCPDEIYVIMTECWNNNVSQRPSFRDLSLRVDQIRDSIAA

Chain of Jak2 (Jak2-WT) (Q62120 whole entry): as the sequence (Q62120 whole entry V617F) above, with F617V counted along it

Take `CC(CCc1ccccn1)(CCc1ccccn1)C(=O)c1ccccc1` [Z3, 2-methyl-1-phenyl-4-pyridin-2-yl-2-(2-pyridin-2-ylethyl)butan-1-one]: the IC50 was roughly 15 µM against Jak2 (Jak2-WT) and roughly 28 µM on Jak2-V617F.

By IC50 is commonly meant the point on the concentration scale where inhibition reaches its midpoint. Read a high IC50 as weaker potency.

Values taken from publication PMC2579271 (Molecular cancer therapeutics, 2008).
